Experiments:
[1] = molecular target: phospholipase A2 from human leucocytes; assay: In vitro inhibition of phospholipase A2 obtained from human leucocytes; format: biochemical; settings: enzyme from human neutrophilic polymorphonuclear leucocytes, 14C-oleic acid labelled E. coli phospholipids, 37°, 1 hour, pH 7
Protocol: Human neutrophilic polymorphonuclear leucocytes are isolated from "buffy coats" by multistage fractional sedimentation and are deep-frozen. Phospholipase A2 is extracted from the cell suspension by homogenisation with the addition of ice-cold 0.36N H2 SO4 in 2N NaCl, and the supernatant obtained after centrifugation at 10,000×g is dialysed against sodium acetate buffer pH 4.5.
In order to determine the enzyme activity, enzyme (10-30 μg protein) is incubated at 37° for 1 hour in 0.1M tris/HCl buffer pH 7 with the addition of 1 mM CaCl2 and substrate consisting of phospholipids (2 μM) of Escherichia coli that have been radioactively labelled with ^14 C-oleic acid by means of biosynthesis. The reaction is stopped by the addition of Dole reagent (isopropanol/heptane/1N H2 SO4 40:10:1, v/v) and the ^14 C-oleic acid selectively released by phospholipase A2 is extracted. Substrate also extracted at the same time is completely removed by filtering the extract through a column of silica gel. The ^14 C-oleic acid in the eluate is determined by radiometry.
In order to ascertain the inhibitory action of test substances on phospholipase A2, these substances are added in the form of solutions in water, dimethyl sulphoxide (final concentration in the mixture up to 5% v/v) or ethanol (final concentration in the mixture up to 2.5% v/v) to the incubation mixture. […]

[2] = molecular target: phospholipase C from human thrombocytes; assay: In vitro inhibition of phospholipase C obtained from human thrombocytes; format: biochemical; settings: enzyme from human thrombocytes, phosphatidyl-[14C]-inositol, 37°, 5 minutes, pH 6
Protocol: Human thrombocytes are obtained from "buffy coats" by fractional centrifugation and then deep frozen.
To ascertain the enzyme activity, enzyme (20-100 μg protein) is incubated at 37° for 5 minutes in 0.025M tris/malate buffer pH 6 with the addition of 0.2 mM CaCl2 and 0.02 mM radioactively labelled substrate, phosphatidyl-[^14 C]-inositol. The reaction is stopped by extraction by shaking with CHCl3 /CH3 OH 2:1 (v/v). In the course of this operation unconsumed substrate is extracted into the organic phase, whilst the reaction product, ^14 C-inositol phosphate, remains in the aqueous phase and can be measured by radiometry of an aliquot.
In order to ascertain the inhibitory action of test substances on phospholipase C, these substances are added in the form of solutions in water, dimethyl sulphoxide (final concentration in the mixture up to 5%, v/v) or ethanol (final concentration in the mixture up to 2.5%, v/v) to the incubation mixture. The strength of action of the test substances is expressed by the IC50, that is to say the concentration that causes a 50% inhibition of the control activity. The IC50 is ascertained on a graph by plotting the percentage inhibition on the ordinate against the log of the concentration (μM) on the abscissa.

IC50 [1]: 1600 µM
IC50 [2]: 20 µM
Structure (SMILES): CCN(CC)CCCC(C)Nc1c2ccc(Cl)cc2nc2ccc(OC)cc12 (centres unmarked) [mepacrine]
